Test results taken from paper PMC9124820, “In vitro evaluation of fenfluramine and norfenfluramine as victims of drug interactions” (Pharmacology Research & Perspectives, 2022).

What was measured:
[1] = Metabolic stability and metabolite identity, rat liver S9 fractions; format: in vitro ADME; conditions: pH 7.4; 1 µM FFA, rat liver S9 fractions 2 mg protein/mL
Protocol: (§1) LC‐MS/MS analyses to assess metabolic stability and identify the transporter substrate were performed using an API 4000 QTRAP mass spectrometer (SCIEX, Framingham, MA) with electrospray ionization in positive mode. Chromatography was performed using an Atlantis dC18 analytical column (100 × 2.1 mm, 5 µm; Waters Corporation, Milford, MA). Mobile phases were 0.2% v/v formic acid in water and 0.2% v/v formic acid in acetonitrile. For metabolic stability experiments, FFA and metabolites were eluted at a flow rate of 0.6 mL/min, with a linear gradient of 20%−80% acetonitrile from 0.30−2.0 min. […] The mass transitions monitored were 232.0 > 159.0 for FFA and 348.0 > 330.0 for 1ʹ‐OH‐midazolam‐d4 internal standard. […]
(§2) FFA (1 or 10 µM) was incubated with liver and intestinal S9 fractions (2 mg protein/mL) at 37 ± 1°C in 0.2‐mL incubation mixtures containing potassium phosphate buffer (50 mM, pH 7.4), magnesium chloride (MgCl2) (3 mM), and EDTA (1 mM, pH 7.4), in the presence or absence of a three‐component cofactor mixture (NADPH‐generating system, uridine diphosphate glucuronic acid (UDPGA) [8 mM], and 3’‐phosphoadenosine 5’‐phosphosulfate [0.5 mM]). […] Supernatant fractions were analyzed by LC‐MS/MS.
(§3) To characterize substrate loss and metabolic stability, duplicate samples were analyzed by LC‐MS/MS to determine the change in substrate concentration over the incubation period. […]

[2] = Metabolic stability and metabolite identity, human intestinal S9 fractions; format: in vitro ADME; conditions: pH 7.4, 1 µM FFA, human intestine S9 fractions, outside assay detection limits
Protocol: as §1, §2, §3

CCNC(C)Cc1cccc(C(F)(F)F)c1 (racemic) [FFA, (RS)‐ethyl (α‐methyl‐3‐trifluoromethylphenethyl)amine]
half-life at 1 µM [1]: 35.4 min
microsomal CLint at 1 µM [1]: 9.8 µL/min/mg
half-life at 1 µM [2]: > 120 min
microsomal CLint at 1 µM [2]: < 2.9 µL/min/mg
